Measurements published in BindingDB's records for doi:10.1016/j.bioorg.2015.11.002 (Government College University, 2016).

Experiments:
Acetylcholinesterase = Acetylcholinesterase (Homo sapiens, UniProt P22303); assay: Acetylcholinesterase Assay; conditions: pH 7.7
Experimental: The AChE inhibition activity was determined according to the Ellman's method with slight modifications. Total volume of the reaction mixture was 100 µL. It contained 60 µL Na2HPO4 buffer with concentration of 50 mM and pH 7.7. Ten µL test compound (0.5 mM well-1) was added, followed by the addition of 10 µL (0.005 unit well-1) enzyme. The contents were mixed and preread at 405 nm. Then contents were pre-incubated for 10 min at 37 °C. The reaction was initiated by the addition of 10 µL of 0.5 mM well-1 substrate (acetylthiocholine iodide), followed by the addition of 10 µL DTNB (0.5 mM well-1). After 30 min of incubation at 37 °C, absorbance was measured at 405 nm. Synergy HT (BioTek, USA) 96-well plate reader was used in all experiments. All experiments were carried out with their respective controls in triplicate.

Cholinesterase = Cholinesterase (Homo sapiens, UniProt P06276); assay: Butyrylcholinesterase Assay; conditions: pH 7.7
Experimental: The butyrylcholinesterase (BChE) inhibition activity was determined according to the Ellman's method with minor modifications. Total volume of the reaction mixture was 100 µL containing 60 µL, Na2HPO4 buffer, 50 mM and pH 7.7. Ten µL test compound 0.5 mM well-1, followed by the addition of 10 µL (0.5 unit well-1)BChE. […] The reaction was initiated by the addition of 10 µL of 0.5 mM well-1 substrate (butyrylthiocholine bromide) followed by the addition of 10 µL DTNB, 0.5 mM well-1. […] Synergy HT (BioTek, USA) 96-well plate reader was used in all experiments. All experiments were carried out with their respective controls in triplicate.

Sequence of Cholinesterase (P06276 whole entry): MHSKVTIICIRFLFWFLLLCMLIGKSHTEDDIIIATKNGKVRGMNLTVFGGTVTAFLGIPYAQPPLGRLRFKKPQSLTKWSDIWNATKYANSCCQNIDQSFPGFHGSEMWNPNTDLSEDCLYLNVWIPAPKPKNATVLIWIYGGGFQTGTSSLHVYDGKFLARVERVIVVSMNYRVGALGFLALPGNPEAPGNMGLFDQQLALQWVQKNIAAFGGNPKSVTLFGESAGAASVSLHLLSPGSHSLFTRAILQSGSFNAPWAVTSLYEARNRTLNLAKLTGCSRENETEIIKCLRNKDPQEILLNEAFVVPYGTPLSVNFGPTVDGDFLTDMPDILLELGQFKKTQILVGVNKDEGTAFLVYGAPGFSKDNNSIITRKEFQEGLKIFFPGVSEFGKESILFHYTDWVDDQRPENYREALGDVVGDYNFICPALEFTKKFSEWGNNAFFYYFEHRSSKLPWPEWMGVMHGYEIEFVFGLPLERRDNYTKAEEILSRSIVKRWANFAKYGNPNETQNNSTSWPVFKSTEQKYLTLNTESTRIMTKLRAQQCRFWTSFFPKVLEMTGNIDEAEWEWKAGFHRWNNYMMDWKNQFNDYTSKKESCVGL
Sequence of Acetylcholinesterase (P22303 whole entry): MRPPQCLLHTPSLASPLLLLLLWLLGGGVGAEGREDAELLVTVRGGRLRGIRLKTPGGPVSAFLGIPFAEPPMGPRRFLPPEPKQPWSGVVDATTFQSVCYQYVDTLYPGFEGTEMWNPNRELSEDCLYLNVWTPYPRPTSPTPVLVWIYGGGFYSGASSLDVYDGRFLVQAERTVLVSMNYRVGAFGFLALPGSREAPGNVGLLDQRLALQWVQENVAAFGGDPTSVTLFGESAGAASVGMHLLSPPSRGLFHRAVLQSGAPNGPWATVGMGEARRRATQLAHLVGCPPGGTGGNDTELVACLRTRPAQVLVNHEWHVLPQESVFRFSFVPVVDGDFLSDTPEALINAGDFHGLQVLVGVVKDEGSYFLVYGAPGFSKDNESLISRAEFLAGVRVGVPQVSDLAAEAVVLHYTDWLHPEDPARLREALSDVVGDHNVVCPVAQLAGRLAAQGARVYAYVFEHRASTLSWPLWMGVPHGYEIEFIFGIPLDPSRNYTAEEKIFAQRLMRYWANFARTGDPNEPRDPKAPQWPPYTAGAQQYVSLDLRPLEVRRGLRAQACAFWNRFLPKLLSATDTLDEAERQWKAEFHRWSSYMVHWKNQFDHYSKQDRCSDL

CC(=O)N(c1ccc(-c2ccc(N(C(C)=O)S(=O)(=O)c3ccccc3)c(C)c2)cc1C)S(=O)(=O)c1ccccc1 [N,N'-(3,3'-dimethylbiphenyl-4,4'-diyl)bis(N-(phenylsulfonyl)acetamide) (3i)]
IC50 (Acetylcholinesterase): 96.3 µM

Cc1cc(-c2ccc(N(Cc3ccccc3)S(=O)(=O)c3ccccc3)c(C)c2)ccc1N(Cc1ccccc1)S(=O)(=O)c1ccccc1 [N,N'-(3,3'-dimethylbiphenyl-4,4'-diyl)bis(N-benzylbenzenesulfonamide) (3p)]
IC50 (Acetylcholinesterase): 2.27 µM
IC50 (Cholinesterase): 31.3 µM

CCCCN(c1ccc(-c2ccc(N(CCCC)S(=O)(=O)c3ccccc3)c(C)c2)cc1C)S(=O)(=O)c1ccccc1 [N,N'-(3,3'-dimethylbiphenyl-4,4'-diyl)bis(N-butylbenzenesulfonamide) (3k)]
IC50 (Acetylcholinesterase): 3.72 µM
IC50 (Cholinesterase): 20.3 µM

CCCCCCCN(c1ccc(-c2ccc(N(CCCCCCC)S(=O)(=O)c3ccccc3)c(C)c2)cc1C)S(=O)(=O)c1ccccc1 [N,N'-(3,3'-dimethylbiphenyl-4,4'-diyl)bis(N-heptylbenzenesulfonamide) (3n)]
IC50 (Acetylcholinesterase): 43.2 µM
IC50 (Cholinesterase): 48.7 µM

CCCCCCCCCCCCCCCCN(c1ccc(-c2ccc(N(CCCCCCCCCCCCCCCC)S(=O)(=O)c3ccccc3)c(C)c2)cc1C)S(=O)(=O)c1ccccc1 [N,N'-(3,3'-dimethylbiphenyl-4,4'-diyl)bis(N-hexadecylbenzenesulfonamide) (3o)]
IC50 (Acetylcholinesterase): 2.45 µM
IC50 (Cholinesterase): 24.7 µM

CCCCCCN(c1ccc(-c2ccc(N(CCCCCC)S(=O)(=O)c3ccccc3)c(C)c2)cc1C)S(=O)(=O)c1ccccc1 [N,N'-(3,3'-dimethylbiphenyl-4,4'-diyl)bis(N-hexylbenzenesulfonamide) (3m)]
IC50 (Acetylcholinesterase): 49.6 µM

Cc1cc(-c2ccc(N(C(C)C)S(=O)(=O)c3ccccc3)c(C)c2)ccc1N(C(C)C)S(=O)(=O)c1ccccc1 [N,N'-(3,3'-dimethylbiphenyl-4,4'-diyl)bis(N-isopropylbenzenesulfonamide) (3j)]
IC50 (Acetylcholinesterase): 101 µM

CCCCCN(c1ccc(-c2ccc(N(CCCCC)S(=O)(=O)c3ccccc3)c(C)c2)cc1C)S(=O)(=O)c1ccccc1 [N,N'-(3,3'-dimethylbiphenyl-4,4'-diyl)bis(N-pentylbenzenesulfonamide) (3l)]
IC50 (Acetylcholinesterase): 51.2 µM

Cc1cc(-c2ccc(NS(=O)(=O)c3ccccc3)c(C)c2)ccc1NS(=O)(=O)c1ccccc1 [N,N'-(3,3'-dimethylbiphenyl-4,4'-diyl)dibenzenesulfonamide (2b)]
IC50 (Acetylcholinesterase): 123 µM

CC(=O)N(c1ccc(-c2ccc(N(C(C)=O)S(=O)(=O)c3ccccc3)cc2)cc1)S(=O)(=O)c1ccccc1 [N,N'-(biphenyl-4,4'-diyl)bis(N-(phenylsulfonyl)acetamide) (3a)]
IC50 (Acetylcholinesterase): 103 µM
IC50 (Cholinesterase): 156 µM

O=S(=O)(c1ccccc1)N(Cc1ccccc1)c1ccc(-c2ccc(N(Cc3ccccc3)S(=O)(=O)c3ccccc3)cc2)cc1 [N,N'-(biphenyl-4,4'-diyl)bis(N-benzylbenzenesulfonamide) (3h)]
IC50 (Acetylcholinesterase): 61.6 µM
IC50 (Cholinesterase): 35.8 µM

CCCCN(c1ccc(-c2ccc(N(CCCC)S(=O)(=O)c3ccccc3)cc2)cc1)S(=O)(=O)c1ccccc1 [N,N'-(biphenyl-4,4'-diyl)bis(N-butylbenzenesulfonamide) (3c)]
IC50 (Acetylcholinesterase): 8.41 µM
IC50 (Cholinesterase): 125 µM

CCCCCCCN(c1ccc(-c2ccc(N(CCCCCCC)S(=O)(=O)c3ccccc3)cc2)cc1)S(=O)(=O)c1ccccc1 [N,N'-(biphenyl-4,4'-diyl)bis(N-heptylbenzenesulfonamide) (3f)]
IC50 (Acetylcholinesterase): 58.6 µM

CCCCCCN(c1ccc(-c2ccc(N(CCCCCC)S(=O)(=O)c3ccccc3)cc2)cc1)S(=O)(=O)c1ccccc1 [N,N'-(biphenyl-4,4'-diyl)bis(N-hexylbenzenesulfonamide) (3e)]
IC50 (Acetylcholinesterase): 78.6 µM

CC(C)N(c1ccc(-c2ccc(N(C(C)C)S(=O)(=O)c3ccccc3)cc2)cc1)S(=O)(=O)c1ccccc1 [N,N'-(biphenyl-4,4'-diyl)bis(N-isopropylbenzenesulfonamide) (3b)]
IC50 (Acetylcholinesterase): 73.2 µM

CCCCCN(c1ccc(-c2ccc(N(CCCCC)S(=O)(=O)c3ccccc3)cc2)cc1)S(=O)(=O)c1ccccc1 [N,N'-(biphenyl-4,4'-diyl)bis(N-pentylbenzenesulfonamide) (3d)]
IC50 (Acetylcholinesterase): 79.6 µM

O=S(=O)(Nc1ccc(-c2ccc(NS(=O)(=O)c3ccccc3)cc2)cc1)c1ccccc1 [N,N'-(biphenyl-4,4'-diyl)dibenzenesulfonamide (2a)]
IC50 (Acetylcholinesterase): 42.3 µM
IC50 (Cholinesterase): 203 µM

CCCCCCCCCCCCCCCCN(c1ccc(-c2ccc(N(CCCCCCCCCCCCCCCC)S(=O)(=O)c3ccccc3)cc2)cc1)S(=O)(=O)c1ccccc1 [N,N’-(biphenyl-4,4’-diyl)bis(N-hexadecylbenzenesulfonamide) (3g)]
IC50 (Acetylcholinesterase): 4.63 µM
IC50 (Cholinesterase): 7.74 µM
